Laboratory results reported in patent publication US9499570B2, “Boron containing small molecules” (priority 2010, dated 2016).
Entries after “also recorded” stand apart in the source; their conditions may differ.

Legend:
[1] = system: Schistosoma mansoni adult worms; assay: Schistosoma mansoni adult worm phenotype screen in vitro; conditions: for Adult worm screen phenotype 7 h / Adult worm screen phenotype 24 h / Adult worm screen phenotype 4 d / Adult worm screen phenotype 6 d*: Second Set, 5 uM; for Phenotypes caused by positive control compounds: adult worms
Excerpt: (§1) Puerto Rican isolates of S. mansoni using Biomphalaria glabrata snails and golden hamsters as intermediate and definitive hosts, respectively, were maintained and handled in the University of California-San Francisco Sandler Center for Tropical Medicine. Patent B. glabrata snails (6-8 weeks after exposure to 5-10 infectious miracidia) were induced to shed infective larvae (cercariae) under light stimulus into the surrounding water. Cercariae were washed in rounds of ice-cold water and concentrated through and over sieves of varying pore sizes. They were then mechanically sheared (separation of heads from tails) as described in Colley D G, et al. Exp Parasitol 1974, 35:44-51, in ice-cold Incomplete Medium 169 (as described in Basch P F. J Parasitol 1981, 67:179-185, minus FBS and antibiotics) by passing 15 times through a double headed 22-gauge syringe needle connected to two 10 mL syringes. The resulting cercarial heads (schistosomula) were separated from their tails by swirling in a petri dish. Concentrated schistosomula were added to a sterile 1.5 mL centrifuge tube and allowed to settle over ice. Schistosomula were transferred to a sterile environment and washed 4 times in Incomplete Medium 169 prior to plating.
(§2) Two sets of screening were performed. In the first set, compounds were screened against schistosomula and observations were made at 24 hours, 2 days, 3 days, 4 days, and 6 days. In the second set, compounds were screened against schistosomula with observations at 24 hours, 2 days, 3 days, and 4 days and adult worms at 7 hours, 24 hours, 4 days, and 6 days.
Given the delicacy and size (0.5-1.5 cm in length) of this stage all operations were performed manually by the Sandler Center. 24-well plates were set up with compound (final DMSO concentration=0.5%) containing approximately 5 pairs of worms (S. mansoni has separate sexes) in 2 mL complete Basch medium per well. Plates were maintained at 37° C. in a 5% CO2 atmosphere. All compounds were tested in duplicate with at least two experimental replicates.
(§3) A semi-quantitative and controlled nomenclature for phenotypes that can arise as a result of compound insult to both schistosomula and adults was utilized (Abdulla M H, et al., PLoS Negl Trop Dis 2009, 3:e478). Phenotypes were recorded by visual inspection and on a flexible time basis but at least at 24 h and 4 day time-points in the case of large scale screening. […] To help eliminate bias, two screen analysts scored phenotypes ‘blind’ both to knowledge of the contents of each screening plate and the phenotypes scored by his/her colleague. Upon completing their individual assessments, each analyst's ‘hit sheet’ was then compared to derive a ‘consensus hit sheet’. Discrepancies in analysts' hit sheets were re-evaluated under the microscope to eventually make a consensus hit call.
(§4) Hyper-coiled and coiled represent a verbal description of the visual phenotype as compared to the DMSO control. The + and ++ and +++ means more of the phenotype which preceded it. The − means less of the phenotype which preceded it. Results

[2] = system: Schistosoma mansoni schistosomula; assay: Schistosoma mansoni schistosomula phenotype screen in vitro; conditions: for Schistosomula (juvenile infective form) worm screen phenotype 2 d / Schistosomula (juvenile infective form) worm screen phenotype 3 d / Schistosomula (juvenile infective form) worm screen phenotype 4 d / Schistosomula (juvenile infective form) worm screen phenotype 24 h: Second Set, 5 uM; for Phenotypes caused by positive control compounds: schistosomula
Excerpt: as §1, §2
Plates contain 200 schistosomula/well in […] complete Basch medium and were maintained at 37° C. in a 5% CO2 atmosphere. All compounds were tested in duplicate with at least two experimental replicates. Compounds and control compounds were added to the plates using the Biomek FXp using 96-well disposable tips. Final concentration of DMSO in each well was 0.5%.
as §3, §4

Compound	Adult worm screen phenotype 7 h [1]	Schistosomula (juvenile infective form) worm screen phenotype 2 d [2]	Schistosomula (juvenile infective form) worm screen phenotype 3 d [2]	Schistosomula (juvenile infective form) worm screen phenotype 4 d [2]	Schistosomula phenotype day 6 ([2]; First Set)	Schistosomula phenotype day 4 ([2]; First Set)	further results
N#Cc1ccc(Oc2ccc3c(c2)COB3O)nc1OC1CCCC1 [2-Cyclopentyloxy-6-(1-hydroxy-1,3-dihydro-benzo[c][1,2]oxaborol-5-yloxy)-nicotinonitrile]	O+	O++, R−, and some and deg-M	O++, R−, and some and deg-M	O++, R−,; also recorded: some deg-M			Adult worm screen phenotype 24 h [1]: O−; Adult worm screen phenotype 4 d [1]: v, slow, sex; also recorded: sep, on sides; Adult worm screen phenotype 6 d* [1]: Dark, S,; also recorded: Partial D (Partial D=partial killing of worm population)
COCCN(C)c1nc(Oc2ccc3c(c2)COB3O)ccc1C#N [6-(1-hydroxy-1,3-dihydro-benzo[c][1,2]oxaborol-5-yloxy)-2-[(2-methoxy-ethyl)-methyl-amino]-nicotinonitrile]					R O and Partial D (Partial D=partial killing of worm population)		Schistosomula phenotype day 3 ([2]; First Set, day 3): O+ and Deg-M (Deg-M=worms in morphological disarray but still living)
N#Cc1ccc(Oc2ccc3c(c2)COB3O)nc1 [6-(1-hydroxy-1,3-dihydrobenzo[c][1,2]oxaborol-5-yloxy)nicotinonitrile]	O−	R−, O−, and some and deg-M	O, some; also recorded: deg-M	O, some deg-M		O−, and R−	Schistosomula (juvenile infective form) worm screen phenotype 24 h [2]: R−, O−
COc1nc(Oc2cc3c(cc2F)B(O)OC3)ccc1C#N [6-(6-Fluoro-1-hydroxy-1,3-dihydrobenzo[c][1,2]oxaborol-5-yloxy)-2-methoxynicotinonitrile]	O++	O+++, and R−, and some and deg-M	O+++, and some and deg-M	O+++, some; also recorded: deg-M	R O and some and partial D		Adult worm screen phenotype 24 h [1]: O++ sex sep; Adult worm screen phenotype 4 d [1]: O+, sex sep; also recorded: males dark; Adult worm screen phenotype 6 d* [1]: Dark, Partial D; Schistosomula (juvenile infective form) worm screen phenotype 24 h [2]: R, O++,; also recorded: some deg-m
CC(C)OCCOc1nc(Oc2ccc3c(c2)COB3O)ccc1C#N [D140, 6-(1-Hydroxy-1,3-dihydrobenzo[c][1,2]oxaborol-5-yloxy)-2-(2-isopropoxyethoxy)nicotinonitrile, reference compound]	O++	O+++, and R−, and some and deg-M	O+++, R, and some and deg-M	O+++, R,; also recorded: some deg-M			Adult worm screen phenotype 24 h [1]: O++ sex sep; Adult worm screen phenotype 4 d [1]: O, sex sep,; Schistosomula (juvenile infective form) worm screen phenotype 24 h [2]: R, O++,; also recorded: some deg-m
CC(=O)CCCOc1nc(Oc2ccc3c(c2)COB3O)ccc1C#N [D141, 6-(1-hydroxy-1,3-dihydrobenzo[c][1,2]oxaborol-5-yloxy)-2-(4-oxopentyloxy) nicotinonitrile, reference compound]	O++, and Sex sep (Sex sep=worm pairs have separated) and (violent and motion)	O+++, and R−, and some and deg-M	O+++, R, and some and deg-M	O+++, R,; also recorded: some deg-M			Adult worm screen phenotype 24 h [1]: O++, Sex; also recorded: sep (violent; also recorded: motion); Adult worm screen phenotype 4 d [1]: O++, sex; also recorded: sep on sides,; also recorded: males dark; Adult worm screen phenotype 6 d* [1]: Dark, S,; also recorded: Partial D (Partial D=partial killing of worm population); Schistosomula (juvenile infective form) worm screen phenotype 24 h [2]: R, O++,; also recorded: some deg-m
CCOC(=O)c1ccc(Oc2ccc3c(c2)COB3O)nc1OCC [Ethyl 2-ethoxy-6-(1-hydroxy-1,3-dihydrobenzo[c][1,2]oxaborol-5-yloxy)nicotinate]					R, (R=round); also recorded: Partial D (Partial D=partial killing of worm population)	O, (O=overactive); also recorded: deg-m	Schistosomula phenotype day 2 ([2]; First Set): (shrunk)
CCOC(=O)c1cnc(Oc2ccc3c(c2)COB3O)c(Cl)c1 [Ethyl 5-chloro-6-(1-hydroxy-1,3-dihydrobenzo[c][1,2]oxaborol-5-yloxy)nicotinate]					R O and deg-M and partial D		
CC(C)OC(=O)c1ccc(Oc2ccc3c(c2)COB3O)nc1 [Isopropyl 6-(1-hydroxy-1,3-dihydrobenzo[c][1,2]oxaborol-5-yloxy)nicotinate]					O, R,; also recorded: Partial D (Partial D=partial killing of worm population)	O, R, and some and deg-m	Schistosomula phenotype day 2 ([2]; First Set): O, (O=overactive); also recorded: deg-m
CC(=O)NCc1ccc(Oc2ccc3c(c2)COB3O)cc1 [N-[4-(1-Hydroxy-1,3-dihydro-benzo[c][1,2]oxaborol-5-yloxy)-benzy]-acetamide]						D (D=dead)	
O=C(C1CCCCC1)N1CC(=O)N2CCc3ccccc3C2C1 (stereo not shown) [PZQ, reference compound]							Phenotypes caused by positive control compounds [1]: dose-dependent, rapid and severe phenotypes; Phenotypes caused by positive control compounds [2]: dose-dependent, rapid and severe phenotypes
CCCCOC(=O)c1ccc(Oc2ccc3c(c2)COB3O)nc1 [n-Butyl 6-(1-hydroxy-1,3-dihydrobenzo[c][1,2]oxaborol-5-yloxy)nicotinate]					deg-m; also recorded: O, R, D,	deg-m,; also recorded: (shrunk); also recorded: O, R,	Schistosomula phenotype day 2 ([2]; First Set): (strong); also recorded: O, deg-m
CCCOC(=O)c1ccc(Oc2ccc3c(c2)COB3O)nc1 [n-Propyl 6-(1-hydroxy-1,3-dihydrobenzo[c][1,2]oxaborol-5-yloxy)nicotinate]					O, R,; also recorded: Partial D (Partial D=partial killing of worm population)		Schistosomula phenotype day 2 ([2]; First Set): O+ and (shrunk)
O=C(Nc1ccc([N+](=O)[O-])cc1Cl)c1cc(Cl)ccc1O [niclosamide, reference compound]							Phenotypes caused by positive control compounds [1]: dose-dependent, rapid and severe phenotypes; Phenotypes caused by positive control compounds [2]: dose-dependent, rapid and severe phenotypes
O=C(Nc1ccc(Oc2ccc(Cl)cc2)c(Cl)c1)c1cc(I)cc(I)c1O [rafoxanide, reference compound]							Phenotypes caused by positive control compounds [1]: dose-dependent, rapid and severe phenotypes; Phenotypes caused by positive control compounds [2]: dose-dependent, rapid and severe phenotypes
